These results are taken from patent US11352358B2, “FXR agonist” (XUANZHU BIOPHARMACEUTICAL CO., LTD., priority 2017, dated 2022).

The nature of this data set: Liver microsome metabolism stability, human liver microsome. It is filed as in vitro ADME. Conditions: 0.5 mg protein/mL, test sample 1 μM, β-NADPH. As to the method:
Test samples: the homemade compounds 1, 2, 4 and 5 of the present invention (for their chemical names and preparation methods, see the preparation example for each compound).
a mixed liver microsomes of SD rat and human both purchased from XenoTech, with batch Nos.: 1410271 (SD rat) and 1410013 (human) respectively, wherein the microsomal protein concentrations both were 20 mg mL^−1;
experimental promoter β-NADPH purchased from Roche (batch No.: 524F0231); and a phosphate buffer solution (pH 7.4) made in the lab.
An appropriate amount of the test sample powder was weighed accurately, and dissolved in an appropriate amount of dimethyl sulfoxide (DMSO) to a concentration of 1 mM; and the solution was then diluted by 20 times with methanol to yield a 50 μM working solution.
(1) According to the proportions in table 3 “Composition of the incubation system for liver microsome metabolism stability experiment” above, for each compound, 6 mL of PBS (100 mM), 0.6 mL of MgCl2 solution (20 mM) and 3.66 mL of H2O were made into a mixed solution 1 for the incubation system (not containing the microsomes, the test sample and β-NADPH).
(2) Liver microsomes (20 mg protein/mL) were taken from a refrigerator (−80° C.), and were placed on a thermostatic water bath oscillator (37° C.) and pre-incubated for 3 mins.
(3) For each compound, 1.88 mL of the mixed solution 1 for the incubation system was added with 55 μL of microsomes to obtain a mixed solution 2 for the incubation system (not containing the test sample and β-NADPH).
(4) Sample group (containing the microsomes and D-NADPH): 616 μL of mixed solution 2 for the incubation system was added with 14 μL of the test sample working solution (with a concentration of 50 μM), and with 70 μL of R-NADPH working solution (10 mM). The resulted solution was well mixed, and the resulted solution was then duplicated. The time points of sampling were at 0 min, 5th min, 10th min, 20th min, 30th min and 60th min.
(5) Control group (containing the microsomes, and water instead of D-NADPH): 264 μL of mixed solution 2 for the incubation system was added with 6 μL of the test sample working solution (50 μM), and with 30 μL of water. The resulted solution was well mixed, and the resulted solution was then duplicated. The time points of sampling were at 0 min and 60th min.
(6) 50 μL of sample was taken from an incubating sample tube at each predetermined time point, added to a terminating sample tube (containing 300 μL of cold terminator), and vortexed; and the reaction was terminated.
(7) after 10 mins of vortexing, the solution was centrifuged for 5 mins (12,000 rpm).
(8) 100 μL of supernatant was taken and added with 100 μL of water, and the mixture solution was thoroughly vortexed; and the solution was then analyzed by LC-MS/MS.
Percentages of residual contents were calculated according to the following formula.

In the case of `O=C(O)c1ccc2nc(N3C[C@@H]4C[C@H]3C[C@H]4OCc3c(-c4c(Cl)cccc4Cl)noc3C3CC3)sc2c1` [Compound 2-1, 2-((1S, 4S, 5R)-5-((5-cyclopropyl-3-(2,6-dichlorophenyl)isoxazol-4-yl)methoxy)-2-azabicyclo[2.2.1]heptan-2-yl)benzo[d]thiazole-6-carboxylic acid], the “Residual content (%) after 60 minutes of incubation” value is listed as 69%.
